Where “and” joins values, the source holds several entries; their conditions need not be identical. Identical values can stand only once.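 Where inhibition never reached the appropriate level, the endpoint shown equals the highest concentration tested. Otherwise, values were interpolated linearly from a five-concentration, 48-hour dose response in 96-well plates. GI50 = concentration required for 50% inhibition of growth. TGI marks complete inhibition of growth.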
Columns and labels:
Assay in all cases: inhibition of tumour cell growth, NCI panel, 48 h
HL-60(TB) leukemia = system: HL-60(TB) leukemia
EKVX NSCLC = system: EKVX NSCLC
MDA-N = system: MDA-N
K-562 leukemia = system: K-562 leukemia
HCC-2998 colon = system: HCC-2998 colon
UO-31 renal = system: UO-31 renal
RPMI-8226 leukemia = system: RPMI-8226 leukemia
SNB-75 CNS = system: SNB-75 CNS
BT-549 breast = system: BT-549 breast
NCI-H23 lung = system: NCI-H23 lung

For CCOC(=O)C(NC(=O)c1ccccc1)(N1CCOCC1)C(F)(F)F (configuration not stated), the TGI (HL-60(TB) leukemia) was over 100 µM, the TGI (EKVX NSCLC) was over 100 µM and the TGI (MDA-N) was over 100 µM. For the same compound, the TGI (K-562 leukemia) was over 100 µM, the TGI (HCC-2998 colon) was over 100 µM and the TGI (UO-31 renal) was over 100 µM. The TGI (RPMI-8226 leukemia) was over 100 µM, the TGI (SNB-75 CNS) was over 100 µM and the TGI (BT-549 breast) was over 100 µM. It also gave a TGI (NCI-H23 lung) of over 100 µM.

CCCCON1C[C@H](OC(C)=O)C(OC(C)=O)[C@H](OC(C)=O)C1 (some centres not stated) showed a TGI (HL-60(TB) leukemia) of over 100 µM, a TGI (EKVX NSCLC) of over 100 µM and a TGI (MDA-N) of over 100 µM. For the same compound, the TGI (K-562 leukemia) was over 100 µM, the TGI (HCC-2998 colon) was over 100 µM and the TGI (UO-31 renal) was over 100 µM. It also gave a TGI (RPMI-8226 leukemia) of over 100 µM, a TGI (SNB-75 CNS) of over 100 µM and a TGI (BT-549 breast) of over 100 µM. It also gave a TGI (NCI-H23 lung) of over 100 µM.

Nc1nn2c(nc(N)c3c(N)[nH]nc32)c1N=Nc1ccc(Br)cc1 was tested, and the TGI (HL-60(TB) leukemia) was 77.9 µM, the TGI (EKVX NSCLC) was over 100 µM and the TGI (MDA-N) was 9.88 µM. The TGI (K-562 leukemia) was over 100 µM, the TGI (HCC-2998 colon) was over 100 µM and the TGI (UO-31 renal) was over 100 µM. It also gave a TGI (RPMI-8226 leukemia) of over 100 µM, a TGI (SNB-75 CNS) of 59.9 µM and a TGI (BT-549 breast) of 15.5 µM. For the same compound, the TGI (NCI-H23 lung) was over 7.37 µM.

For Cc1cn([C@@H]2O[C@H](CO[Si](C)(C)C(C)(C)C)[C@]3(O[C@H]3C(=O)NN)[C@H]2O[Si](C)(C)C(C)(C)C)c(=O)[nH]c1=O, the TGI (HL-60(TB) leukemia) was 6.09 µM, the TGI (EKVX NSCLC) was 22.4 µM and the TGI (MDA-N) was 13.3 µM. For the same compound, the TGI (K-562 leukemia) was 7.17 µM, the TGI (HCC-2998 colon) was 7.78 µM and the TGI (UO-31 renal) was 27.7 µM. It also gave a TGI (RPMI-8226 leukemia) of 9.19 µM, a TGI (SNB-75 CNS) of 22.9 µM and a TGI (BT-549 breast) of 13.9 µM. It also gave a TGI (NCI-H23 lung) of 30 µM.

In the case of Cc1ccc(/C=N/Nc2ccc3ccccc3n2)s1, the TGI (HL-60(TB) leukemia) is reported as over 100 µM, the TGI (EKVX NSCLC) is reported as 32.2 µM and the TGI (MDA-N) is reported as 29.2 µM. It also gave a TGI (K-562 leukemia) of over 100 µM, a TGI (HCC-2998 colon) of 30.7 µM and a TGI (UO-31 renal) of over 100 µM. The TGI (RPMI-8226 leukemia) was 86.9 µM, the TGI (SNB-75 CNS) was over 100 µM and the TGI (BT-549 breast) was 68.7 µM. The TGI (NCI-H23 lung) was over 100 µM.

CN(c1ccccc1Cl)S(=O)(=O)c1ccc([N+](=O)[O-])cc1 showed a TGI (HL-60(TB) leukemia) of over 100 µM, a TGI (EKVX NSCLC) of over 100 µM and a TGI (MDA-N) of over 100 µM. The TGI (K-562 leukemia) was over 100 µM, the TGI (HCC-2998 colon) was over 100 µM and the TGI (UO-31 renal) was over 100 µM. It also gave a TGI (RPMI-8226 leukemia) of over 100 µM, a TGI (SNB-75 CNS) of over 100 µM and a TGI (BT-549 breast) of over 100 µM. The TGI (NCI-H23 lung) was over 100 µM.

CCN(CC)CCNC(=O)c1cn2c(ccc3sc4ccccc4c(=O)c32)n1 gave a TGI (HL-60(TB) leukemia) of 25.4 µM, a TGI (EKVX NSCLC) of 35.3 µM and a TGI (MDA-N) of 28.4 µM. For the same compound, the TGI (K-562 leukemia) was 36.8 µM, the TGI (HCC-2998 colon) was 24.3 µM and the TGI (UO-31 renal) was 21 µM. For the same compound, the TGI (RPMI-8226 leukemia) was 29 µM, the TGI (SNB-75 CNS) was 32.6 µM and the TGI (BT-549 breast) was 28.5 µM. For the same compound, the TGI (NCI-H23 lung) was 28.4 µM.

For CCCCCCCCCCC1OC([C@@H](O)CC[C@H](O)C2CC[C@@H](CCCCCCCC(O)CC3=CC(C)OC3=O)O2)CCC1O (some centres not stated), the GI50 (HL-60(TB) leukemia) was 4.47 µM, the TGI (HL-60(TB) leukemia) was over 25 µM and the GI50 (EKVX NSCLC) was 9.5 µM. It also gave a TGI (EKVX NSCLC) of over 25 µM, a TGI (MDA-N) of over 25 µM and a GI50 (K-562 leukemia) of 2.48 µM. The TGI (K-562 leukemia) was over 25 µM, the TGI (HCC-2998 colon) was over 25 µM and the GI50 (UO-31 renal) was 2.66 µM. It also gave a TGI (UO-31 renal) of 10.4 µM, a TGI (RPMI-8226 leukemia) of 15.4 µM and a GI50 (SNB-75 CNS) of 20.7 µM. For the same compound, the TGI (SNB-75 CNS) was over 25 µM, the GI50 (BT-549 breast) was 2.34 µM and the TGI (BT-549 breast) was 7.53 µM and > 25 µM. It also gave a GI50 (NCI-H23 lung) of 1.35 µM and a TGI (NCI-H23 lung) of over 25 µM.

Compound COc1ccc(OC)c(NS(=O)(=O)c2ccc3nc(C)n(NS(=O)(=O)c4cc(OC)ccc4OC)c(=O)c3c2)c1 has a TGI (HL-60(TB) leukemia) of over 100 µM, a TGI (EKVX NSCLC) of over 100 µM and a TGI (MDA-N) of over 100 µM. It also gave a TGI (K-562 leukemia) of over 100 µM, a TGI (HCC-2998 colon) of over 100 µM and a TGI (UO-31 renal) of over 100 µM. It also gave a TGI (RPMI-8226 leukemia) of over 100 µM, a TGI (SNB-75 CNS) of over 100 µM and a TGI (BT-549 breast) of over 100 µM. The TGI (NCI-H23 lung) was over 100 µM.

CCCCCCCCCCCCOCCCOP(=O)([O-])OCC[N+](C)(C)C was tested, and the TGI (HL-60(TB) leukemia) was 55.5 µM, the TGI (EKVX NSCLC) was over 100 µM and the TGI (MDA-N) was 19.3 µM. For the same compound, the TGI (K-562 leukemia) was over 76.5 µM, the TGI (HCC-2998 colon) was 24.9 µM and the TGI (UO-31 renal) was over 89.5 µM. For the same compound, the TGI (RPMI-8226 leukemia) was 31.6 µM, the TGI (SNB-75 CNS) was 71.1 µM and the TGI (BT-549 breast) was 33.1 µM. The TGI (NCI-H23 lung) was 99.2 µM.

Cc1c2c(OCCN3CCCCC3)nn(C)c(=O)c2c(C)n1-c1ccccc1 was tested, and the TGI (HL-60(TB) leukemia) was over 100 µM, the TGI (EKVX NSCLC) was over 100 µM and the TGI (MDA-N) was over 100 µM. The TGI (K-562 leukemia) was over 100 µM, the TGI (HCC-2998 colon) was 65.3 µM and the TGI (UO-31 renal) was 29.1 µM. For the same compound, the TGI (RPMI-8226 leukemia) was 95.1 µM, the TGI (SNB-75 CNS) was over 100 µM and the TGI (BT-549 breast) was over 100 µM. It also gave a TGI (NCI-H23 lung) of over 100 µM.

Source: PubChem BioAssay (NCI)
